From US20060003410A1, “Prostaglandin reductase” (priority 2004, published 2006) come the findings set out here.

One assay relates to endogenous PPAR. In words: Reporter gene assay of endogenous PPAR activity in differentiating 3T3-L1 cells. The assay is classed as cell-based, mouse. The settings on record: 3T3-L1 cells induced to differentiate for two days, transfected with a reporter gene. How it is done:
(§1) The effect of prostaglandin on PPAR-gamma activity in adipocytes was investigated. After treatment with a medium that induces cell differentiation, 3T3-L1 cells were treated from day 2 to 4 during adipogenesis with 14 μM 15-keto PGE2, 13,14-dihydro-15-keto PGE2 , 15-keto PGF2α, 13,14-dihydro-15-keto PGF2α, or 4.5 μm of BRL49653, a PPAR-gamma agonist. See Forman et al., Cell (1995) 83:803-812. At day 6, aggregates of lipid droplets were stained with oil-red O for observation. […] After being induced to differentiate for two days, the 3T3-L1 cells were transfected with a reporter gene.
Background: A reporter such as luciferase makes a cellular process visible.

In assay [1] the target is T1, recombinant mouse PGR-2 protein (Mus musculus, UniProt Q8VDQ1).
T1 construct: The coding region of PGR-2 open reading frame was then subcloned to the expression vector pCMV-Tag2B; GST (N); made in house; host or cells: E. coli (pGEX-4T-3 vector)
Kind of assay: Substrate specificity of PGR-2 (NADPH consumption, absorbance at 490 nm). The assay is classed as biochemical. The settings on record: 10 μg recombinant mouse PGR-2, 0.5 mM NADPH, substrate replacing 15-keto PGE2, 37° C., 10 minutes. The protocol: (§2) Mouse PGR-2 was recombinantly expressed in E.coli as a GST fusion protein following standard procedures. The recombinant PGR-2 protein thus obtained was used to determine substrate specificity and enzymatic kinetics.
(§3) Enzymatic activity was determined as follows. 10 μg of the recombinant mouse PGR-2 protein was incubated at 37° C. in a reaction buffer containing 0.1M Tris-HCl (pH7.4), 0.5 mM NADPH, and 0.57 mM 15-keto PGE2. The reaction was conducted at 37° C. in the dark for 10 minutes and terminated by adding 700 μl of a buffer which contained 50 mM potassium hydrogen phthalate, pH 3.0, and 1% Tween 20. 200 μl of a color development reagent, which contained 790 μM indonitrotetrazolium chloride, 60 μM phenazene methosulfate, and 1% Tween 20, was added to oxidize any unreacted NADPH. Absorbance at 490 nm was measured by an ELISA plate reader. A standard curve was generated using reaction buffers containing serially diluted amounts of NADPH.
Substrate specificity of PGR-2 was determined using the just-described procedure, except that 15-keto PGE2 was replaced with each of six prostaglandin substrates, each of three downstream metabolites, or leukotriene B4.

The next assay concerns PPAR-gamma. In words: Luciferase reporter with PPAR-gamma ligand-binding domain fused to yeast GAL4 DNA-binding domain in 3T3-L1 cells. The assay is classed as cell-based. The source says: (§4) A luciferase reporter gene was transfected to 3T3-L1 cells together with the ligand-binding domain of PPAR-alpha, PPAR-gamma or PPAR-delta fused to a yeast GAL4 DNA-binding domain.
Assay [2] deals with T1, recombinant mouse PGR-2 protein. Kind of assay: Kinetics studies of PGR-2 catalyzed conversion. In kind it is biochemical. The settings on record: order: 15-keto PGE2, then 15-keto PGF1α, 15-keto PGE1, 15-keto PGF2α. How it is done: as §2, §3
Unlike PGR/LTB4DH, PGR-2 used NADPH as a cofactor much more efficiently than NADH.

The target of another assay is T2, PPAR-alpha (Homo sapiens, UniProt Q07869).
T2 construct: expressed in transfected cells; host or cells: 3T3-L1 cells
T2 sequence (Q07869 239-466 limits assumed): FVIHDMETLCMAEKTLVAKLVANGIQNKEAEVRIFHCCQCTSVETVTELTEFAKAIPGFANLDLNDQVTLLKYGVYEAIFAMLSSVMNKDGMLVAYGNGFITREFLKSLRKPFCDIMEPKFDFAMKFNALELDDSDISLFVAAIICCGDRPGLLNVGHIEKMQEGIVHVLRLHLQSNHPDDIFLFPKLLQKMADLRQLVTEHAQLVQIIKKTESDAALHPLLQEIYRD
Kind of assay: Luciferase reporter with PPAR-alpha ligand-binding domain fused to yeast GAL4 DNA-binding domain in 3T3-L1 cells. The assay is classed as cell-based. The settings on record: compared with PPAR-gamma.
Text: as §4

Assay [3] deals with 3T3-L1 cells. In words: Protein expression of adipogenesis-specific, PPAR-gamma target genes in 3T3-L1 cells. The settings on record: for IRS-1 protein expression: 3T3-L1 cells. In kind it is cell-based, mouse. The source says:
Also examined was the ability of 15-keto PGE2 to induce protein expression of adipogenesis-specific, PPAR-gamma target genes, i.e., IRS-1 and -2.

For assay [4], the system named is 3T3-L1 cells. Kind of assay: Adipogenesis in 3T3-L1 cells, lipid droplets stained with oil-red O. In kind it is cell-based, mouse. The settings on record: 14 μM, treated day 2 to 4 during adipogenesis, stained at day 6. How it is done: as §1

T1 sequence (Q8VDQ1 whole entry): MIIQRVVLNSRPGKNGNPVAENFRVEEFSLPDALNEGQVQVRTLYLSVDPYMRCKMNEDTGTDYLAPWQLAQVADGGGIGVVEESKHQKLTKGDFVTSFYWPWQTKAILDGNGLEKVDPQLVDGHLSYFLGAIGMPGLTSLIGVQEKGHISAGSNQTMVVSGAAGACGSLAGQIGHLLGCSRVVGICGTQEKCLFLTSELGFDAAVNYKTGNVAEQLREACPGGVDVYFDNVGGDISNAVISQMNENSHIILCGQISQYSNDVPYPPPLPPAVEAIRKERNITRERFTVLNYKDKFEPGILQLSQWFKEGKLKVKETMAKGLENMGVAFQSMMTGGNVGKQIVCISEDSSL

As for `CCCCCC(=O)CC[C@@H]1[C@@H](C/C=C\CCCC(=O)O)[C@@H](O)C[C@H]1O` [13,14-dihydro-15-keto PGF2α], in the assay with endogenous PPAR, the “endogenous PPAR activity (reporter gene)” value is recorded as “failed to increase PPAR activity”. In addition, in assay [1], the “specific activity with PGR-2 (substrate specificity)” value (“specific activity” for short) was “no specific activity was detected”.

In the case of `CCCCC/C=C\C[C@@H](O)/C=C/C=C/C=C\[C@@H](O)CCCC(=O)O` [leukotriene B4], in assay [1], the “specific activity” value is given as “no specific activity was detected”.

For `CCCCCC(=O)/C=C/[C@H]1[C@H](O)CC(=O)[C@@H]1C/C=C\CCCC(=O)O` [15-keto PGE2], in the assay on endogenous PPAR, the “endogenous PPAR activity (reporter gene)” value is “enhanced endogenous PPAR activity significantly”. The “activation of PPAR-gamma (GAL4 fusion, luciferase reporter)” value with PPAR-gamma is “activated”. The “efficiency of PGR-2 catalyzed conversion (rank order)” value in assay [2] was “most efficiently”. Moreover, the “activation of PPAR-alpha (GAL4 fusion, luciferase reporter)” value on PPAR-alpha is reported as “to a lesser degree”. Further, in the assay on 3T3-L1 cells [3], the IRS-1 protein expression entry is reported as “did not increase”. The “PPAR-gamma1 and PPAR-gamma2 protein expression” value with 3T3-L1 cells [3] (added with MIX, insulin and dexamethasone) was “significantly enhanced”. For the same compound, in the assay with 3T3-L1 cells [3] (even in the absence of MIX), the “expression of aP2, an adipocyte-specific marker” value was “strongly induced”. Further, the IRS-2 expression entry in the assay on 3T3-L1 cells [3] (in the presence of insulin and dexamethasone) is on record as “enhanced the expression to a level similar to MIX”. The “adipogenesis (aggregates of lipid droplets, oil-red O)” value in the assay on 3T3-L1 cells [4] was “effectively enhanced adipogenesis at a level similar to BRL49653”.

For the compound `CCCCC[C@H](O)/C=C/[C@@H]1[C@@H](CC(=O)CCCCC(=O)O)[C@@H](O)C[C@H]1O` [6-keto PGF1α], the “specific activity” value in assay [1] was “no specific activity was detected”.

In the case of `CCCCC[C@H](O)/C=C/[C@@H]1[C@@H](C/C=C\CCCC(=O)O)[C@@H](O)C[C@@H]1O` [11b-PGF2α], the “specific activity” value in assay [1] is reported as “no specific activity was detected”.

Turning to `CCCCCC(=O)CCC1C(=O)CC(O)C1C/C=C\CCCC(=O)O` (stereo not shown) [13,14-dihydro-15-keto PGD2], in assay [1], the “specific activity” value is listed as “no specific activity was detected”.

Take `CCCCC[C@H](O)/C=C/[C@@H]1[C@@H](C/C=C\CCCC(=O)O)[C@H](O)C[C@H]1O` [PGF2β]: the “specific activity” value in assay [1] was “no specific activity was detected”.

As for `CCCCCC(=O)/C=C/[C@@H]1[C@@H](CCCCCCC(=O)O)[C@@H](O)C[C@H]1O` [15-keto PGF1α], the “specific activity” value in assay [1] is “reacted specifically with PGR-2”.

As to `CCCCCC(=O)/C=C/[C@H]1[C@H](O)CC(=O)[C@@H]1CCCCCCC(=O)O` [15-keto PGE1], the “specific activity” value in assay [1] is “reacted specifically with PGR-2”.

With `CCCCCC(=O)/C=C/[C@@H]1[C@@H](C/C=C\CCCC(=O)O)[C@@H](O)C[C@H]1O` [15-keto PGF2α], the “endogenous PPAR activity (reporter gene)” value in the assay on endogenous PPAR is “enhanced endogenous PPAR activity significantly”. For the same compound, the “activation of PPAR-gamma (GAL4 fusion, luciferase reporter)” value in the assay on PPAR-gamma is “activated”. Moreover, the “activation of PPAR-alpha (GAL4 fusion, luciferase reporter)” value at PPAR-alpha is given as “to a lesser degree”. Further, the “specific activity” value in assay [1] is given as “reacted specifically with PGR-2”.

With `CC(C)Cn1c(=O)n(C)c(=O)c2[nH]cnc21` [MIX, methylisobutylxanthine], the IRS-1 protein expression result in the assay with 3T3-L1 cells [3] is on record as “induced IRS-1 expression”.

With `CCCCCC(=O)CC[C@H]1[C@H](O)CC(=O)[C@@H]1C/C=C\CCCC(=O)O` [13,14-dihydro-15-keto PGE2], in the assay on endogenous PPAR, the “endogenous PPAR activity (reporter gene)” value is recorded as “failed to increase PPAR activity”. Besides, the “specific activity” value in assay [1] is “no specific activity was detected”.
